From ChEMBL document CHEMBL2321667, “Imidazopyridine-Based Fatty Acid Synthase Inhibitors That Show Anti-HCV Activity and in Vivo Target Modulation” (ACS Med Chem Lett, 2013)

Columns and labels:
[1] = target: Fatty acid synthase (Rattus norvegicus, UniProt P12785)
[2] = in vitro; conditions: human, huh-7
[3] = test system: Hepatitis C virus; test: microbe, parasite or virus in culture; conditions: genotype 1b, Huh-7, 72 h
[4] = in vitro; conditions: plasma
[5] = in vitro; conditions: dog, MDCK

Chain of Fatty acid synthase (P12785 whole entry): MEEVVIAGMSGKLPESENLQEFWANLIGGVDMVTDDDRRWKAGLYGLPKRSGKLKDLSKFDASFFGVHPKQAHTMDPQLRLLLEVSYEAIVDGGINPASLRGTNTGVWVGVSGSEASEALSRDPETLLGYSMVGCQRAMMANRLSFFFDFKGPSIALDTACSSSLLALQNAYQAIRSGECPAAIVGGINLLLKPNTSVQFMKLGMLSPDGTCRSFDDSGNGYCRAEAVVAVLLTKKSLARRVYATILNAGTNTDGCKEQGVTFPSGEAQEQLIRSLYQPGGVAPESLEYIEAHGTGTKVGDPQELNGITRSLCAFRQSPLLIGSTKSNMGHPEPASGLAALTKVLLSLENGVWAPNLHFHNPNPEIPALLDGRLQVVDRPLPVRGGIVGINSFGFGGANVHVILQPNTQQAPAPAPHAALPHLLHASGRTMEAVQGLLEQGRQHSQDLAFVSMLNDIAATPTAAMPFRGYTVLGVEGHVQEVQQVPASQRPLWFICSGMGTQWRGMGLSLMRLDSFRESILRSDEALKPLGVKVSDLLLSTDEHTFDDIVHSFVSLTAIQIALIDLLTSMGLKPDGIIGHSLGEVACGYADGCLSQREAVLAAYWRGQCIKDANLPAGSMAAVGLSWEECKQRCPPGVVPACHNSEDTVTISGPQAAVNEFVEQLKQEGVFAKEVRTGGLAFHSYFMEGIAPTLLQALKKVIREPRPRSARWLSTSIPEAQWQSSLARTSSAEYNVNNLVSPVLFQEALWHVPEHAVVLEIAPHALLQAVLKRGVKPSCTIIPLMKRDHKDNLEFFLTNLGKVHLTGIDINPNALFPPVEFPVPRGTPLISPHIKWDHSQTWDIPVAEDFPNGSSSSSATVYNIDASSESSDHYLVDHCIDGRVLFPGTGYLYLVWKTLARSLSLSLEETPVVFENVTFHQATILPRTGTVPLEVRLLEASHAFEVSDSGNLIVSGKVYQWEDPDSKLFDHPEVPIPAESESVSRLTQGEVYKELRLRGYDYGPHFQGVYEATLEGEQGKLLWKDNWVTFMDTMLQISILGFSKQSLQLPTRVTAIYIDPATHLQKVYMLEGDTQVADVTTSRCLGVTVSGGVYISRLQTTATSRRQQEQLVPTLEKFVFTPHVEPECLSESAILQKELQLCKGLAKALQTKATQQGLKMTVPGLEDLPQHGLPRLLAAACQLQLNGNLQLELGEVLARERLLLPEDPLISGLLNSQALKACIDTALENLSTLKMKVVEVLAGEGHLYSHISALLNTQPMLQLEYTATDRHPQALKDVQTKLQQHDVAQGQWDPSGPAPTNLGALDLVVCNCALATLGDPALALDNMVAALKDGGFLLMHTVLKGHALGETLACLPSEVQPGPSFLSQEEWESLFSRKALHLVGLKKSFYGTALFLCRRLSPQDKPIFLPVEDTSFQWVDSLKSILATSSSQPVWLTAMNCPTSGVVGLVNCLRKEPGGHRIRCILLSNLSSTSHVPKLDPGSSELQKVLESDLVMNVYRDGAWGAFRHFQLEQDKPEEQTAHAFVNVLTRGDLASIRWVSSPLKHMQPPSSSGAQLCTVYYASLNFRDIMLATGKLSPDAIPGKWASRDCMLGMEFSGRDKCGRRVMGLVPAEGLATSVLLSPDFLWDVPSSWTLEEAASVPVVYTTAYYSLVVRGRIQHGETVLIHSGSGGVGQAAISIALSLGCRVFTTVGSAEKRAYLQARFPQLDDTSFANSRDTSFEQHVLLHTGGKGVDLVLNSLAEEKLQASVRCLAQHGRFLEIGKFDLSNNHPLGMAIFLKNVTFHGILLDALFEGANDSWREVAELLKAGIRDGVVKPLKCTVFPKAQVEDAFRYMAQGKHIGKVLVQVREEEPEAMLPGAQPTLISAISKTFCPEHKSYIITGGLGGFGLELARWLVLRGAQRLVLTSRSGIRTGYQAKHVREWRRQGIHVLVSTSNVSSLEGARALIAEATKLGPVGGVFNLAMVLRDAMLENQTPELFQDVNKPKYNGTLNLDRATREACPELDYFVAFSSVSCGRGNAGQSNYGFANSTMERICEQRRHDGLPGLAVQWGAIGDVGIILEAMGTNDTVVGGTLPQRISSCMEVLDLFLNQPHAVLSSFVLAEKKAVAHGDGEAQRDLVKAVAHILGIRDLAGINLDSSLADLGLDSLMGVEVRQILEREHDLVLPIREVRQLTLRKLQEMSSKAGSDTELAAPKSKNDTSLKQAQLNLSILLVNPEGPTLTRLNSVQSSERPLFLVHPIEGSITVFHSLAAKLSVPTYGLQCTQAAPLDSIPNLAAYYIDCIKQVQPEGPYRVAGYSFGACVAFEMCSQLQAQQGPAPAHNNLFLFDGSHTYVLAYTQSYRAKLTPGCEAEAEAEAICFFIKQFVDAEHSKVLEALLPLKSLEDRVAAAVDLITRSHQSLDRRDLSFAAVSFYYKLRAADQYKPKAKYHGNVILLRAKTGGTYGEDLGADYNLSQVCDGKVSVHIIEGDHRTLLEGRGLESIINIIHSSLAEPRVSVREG

IC50 [1]	EC50 [3]	half-life [4]	Papp [5]	IC50 [3]	SMILES	CC50 at 72 h [2]
3970 nM	–	–	–	–	Cc1ccc(C(=O)N2CCC(c3ccc(C#N)cc3)CC2)cc1NC(=O)c1ccc(N2CCCC2)nc1	–
316 nM	84 nM	–	–	–	COCCN(C)c1cc2nc(-c3cc(C(=O)N4CCC(c5ccc(C#N)cc5)CC4)c(C)cc3C)[nH]c2cn1	> 20000 nM
–	91 nM	–	–	–	Cc1ccc(C(=O)N2CCC(c3ccc(C#N)cc3)CC2)cc1-c1nc2cc(N3CCC3)ncc2[nH]1	> 20000 nM
3850 nM	130 nM	–	–	–	Cc1cc(C)c(-c2nc3cc(S(C)(=O)=O)cnc3[nH]2)cc1C(=O)N1CCC(c2ccc(C#N)cc2)CC1	> 20000 nM
–	310 nM	–	–	–	Cc1cc(C)c(-c2nc3nc(N4CCC4)ccc3[nH]2)cc1C(=O)N1CCC(c2ccc(C#N)cc2)CC1	> 3000 nM
–	830 nM	–	–	–	Cc1ccc(C(=O)N2CCC(c3ccc(C#N)cc3)CC2)cc1-c1nc2cc(N3CCN(C)CC3)ncc2[nH]1	15000 nM
–	40 nM	–	–	–	Cc1cc(C)c(-c2nc3cc(N4CCOCC4)ncc3[nH]2)cc1C(=O)N1CCC(c2ccc(C#N)cc2)CC1	> 3000 nM
–	175 nM	> 10 h	8 ×10⁻⁶ cm/s	–	Cc1ccc(C(=O)N2CCC(c3ccc(C#N)cc3)CC2)cc1-c1nc2cc(N3CCCC3)ncc2[nH]1	> 20000 nM
2950 nM	550 nM	–	–	–	N#Cc1ccc(C2CCN(C(=O)c3cccc(-c4nc5cc(N6CCCC6)ncc5[nH]4)c3)CC2)cc1	> 3000 nM
–	> 10000 nM	–	–	–	Cc1cc(C(=O)N2CCC(c3ccc(C#N)cc3)CC2)cc(-c2nc3cc(N4CCCC4)ncc3[nH]2)c1	> 10000 nM
–	150 nM	–	–	–	Cc1ccc(-c2nc3cc(N4CCCC4)ncc3[nH]2)cc1C(=O)N1CCC(c2ccc(C#N)cc2)CC1	8600 nM
–	> 10000 nM	–	–	–	Cc1c(C(=O)N2CCC(c3ccc(C#N)cc3)CC2)cccc1-c1nc2cc(N3CCCC3)ncc2[nH]1	1900 nM
> 50000 nM	–	–	–	> 50000 nM	Cc1ccc(C(=O)N2CCC(c3ccc(C#N)cc3)CC2)cc1-c1nc2ccncc2[nH]1	–
> 50000 nM	–	–	–	> 50000 nM	Cc1ccc(C(=O)N2CCC(c3ccc(C#N)cc3)CC2)cc1-c1nc2ccccc2[nH]1	–
